For 54 molecules, EC50 results are on record in BindingDB's records for doi:10.7270/Q2VX0F3D (Burnham Center For Chemical Genomics, 2012).

The assay addresses T1, Corticotropin-releasing factor-binding protein (Homo sapiens, UniProt P24387).
T1 sequence (P24387 whole entry): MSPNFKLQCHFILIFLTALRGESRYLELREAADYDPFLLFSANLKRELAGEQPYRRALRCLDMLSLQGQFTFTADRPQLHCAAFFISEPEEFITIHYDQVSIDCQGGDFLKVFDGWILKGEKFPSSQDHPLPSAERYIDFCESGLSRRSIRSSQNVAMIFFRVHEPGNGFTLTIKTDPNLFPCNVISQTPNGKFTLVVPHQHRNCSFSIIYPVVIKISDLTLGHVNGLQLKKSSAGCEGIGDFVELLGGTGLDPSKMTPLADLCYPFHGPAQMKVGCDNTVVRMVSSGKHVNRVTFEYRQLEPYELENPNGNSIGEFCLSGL
Briefly: activators of CRF receptor 2 with binding protein – uHTS hits, confirmation (AID 602473).
With `CN(CCOc1ccc(Cc2sc(=O)[nH]c2O)cc1)c1ccccn1`, the EC50 (in general, the concentration giving half of the maximal effect) is greater than 53 µM.

On to `Cc1c(N=C2C(=O)N(c3ccccc3Cl)C(=O)C2Cl)c(=O)n(-c2ccccc2)n1C` (centres undefined), for which the EC50 is greater than 53 µM. For the molecule `Cc1cc2c(cc1C)NC(c1c(C)n(C)n(-c3ccccc3)c1=O)C1C(=O)CC(C)(C)CC1=N2` (centres undefined), the EC50 is greater than 53 µM.

In the case of `N#CC1C(=N)OC2=C(C(=O)CC(c3ccccc3)C2)C1c1ccc2c(c1)OCO2` (centres undefined), the EC50 was greater than 53 µM. Take `Clc1ccc(C2=Nc3ncnn3C(c3ccco3)C2)cc1` (centres undefined): the response was half-maximal at 8.29 µM (EC50). This counts as single-digit micromolar.

Consider `COc1cccc(C(=O)Cc2nc3ccc(C(=O)NCCc4ccc(Cl)cc4)cc3[nH]c2=O)c1`, for which the response was half-maximal at 5.02 µM (EC50).

On to `Cc1ccc(-n2c(O)c3n(-c4ccccc4)[nH]c(C(=O)c4ccccc4)c-3c2=O)cc1`, for which the midpoint of the response, the EC50, lay at 22.2 µM. Turning to `COc1ccccc1-n1c(O)c2n(-c3ccc(C)cc3)[nH]c(C(=O)c3ccccc3)c-2c1=O`, a half-maximal effect (EC50) was put at 5.27 µM. Against the preceding molecule, the EC50 is about 4.2-fold lower. Molecule `N#CC(C(=O)COc1ccc(Cl)cc1)c1nc2ccccc2s1` (centres undefined) registered an EC50 greater than 53 µM. As for `CCOc1ccc(C2CC(c3ccc(C)cc3)=Nc3nnnn32)cc1` (centres undefined), the EC50 was greater than 53 µM. With `Cc1ccccc1COc1ccc(C(=O)C2C(=O)C(=O)N(CCCn3ccnc3)C2c2ccco2)cc1` (centres undefined), the EC50 was greater than 53 µM. `COc1cc(C2c3c(-c4ccccn4)n[nH]c3OC(=N)C2C#N)cc(OC)c1OC` (centres undefined) showed an EC50 greater than 53 µM.

With `O=C(Cc1sc(N=NC=CCc2ccccc2)nc1O)Nc1ccc(Cl)c(Cl)c1`, the EC50 is greater than 53 µM. `CN1C(=O)C(=CCC=Nc2ccccc2)C(=O)N(C)C1=O` displayed an EC50 greater than 53 µM. As for `CC1(C)CC(=O)C2CNc3ccccc3N=C2C1` (centres undefined), the EC50 is greater than 53 µM.

In turn, `COC(=O)C1=C(C)NC(=O)C1=CNc1ccc(Oc2ccccc2)cc1` had a concentration for a half-maximal effect (EC50) greater than 53 µM.

With `O=C(O)c1ccc(CN=Nc2cccc(C(F)(F)F)c2)cc1`, the EC50 is greater than 53 µM. As for `CCOc1ccc(C2=Nc3ncnn3C(c3ccccc3)C2)cc1` (centres undefined), the EC50 is greater than 53 µM. `COc1cc2c(cc1OC)C(CC(=O)c1ccc(OC)c([N+](=O)[O-])c1)=NCC2` showed an EC50 greater than 53 µM.

`COc1ccc(-n2c(O)cc(-c3ccc([N+](=O)[O-])cc3)c2O)cc1`: the EC50 was greater than 53 µM. Regarding `Cc1ccc(-n2c(O)cc(=O)[nH]c2=O)c(C)c1`, the EC50 was greater than 53 µM.

`CCCCCCC1=Cc2c/c(=C(/N)NNC(=O)c3ccncc3)c(=O)oc2=CC1=O` gave an EC50 of 1.11 µM. This counts as single-digit micromolar. As to `Cc1ccc2nc(N3C(=O)C(=O)C(C(=O)c4ccco4)C3c3cccc(O)c3)sc2c1` (centres undefined), the EC50 was greater than 53 µM. With `COc1cc(/C=C2\CCC(C)C3=C(c4cc(OC)c(OC)c(OC)c4)C(C#N)C(=N)OC32)cc(OC)c1OC` (centres undefined), the EC50 is greater than 53 µM. For `CC1=CC(C)(C(Cl)(Cl)Cl)C(C)C=C1N=O` (centres undefined), the EC50 is greater than 53 µM. For the molecule `CCNC(=S)N(CCc1ccc(S(N)(=O)=O)cc1)c1cc(O)n(-c2ccccc2)c1O` [1-(2,5-dioxo-1-phenyl-3-pyrrolidinyl)-3-ethyl-1-[2-(4-sulfamoylphenyl)ethyl]thiourea], a half-maximal response (EC50) required 18.5 µM. For the molecule `Cc1ccc(C2CC(c3ccccc3)=Nc3nc(-n4c(O)ccc4O)nn32)cc1` (centres undefined) [1-[7-(4-methylphenyl)-5-phenyl-1,7-dihydro-[1,2,4]triazolo[1,5-a]pyrimidin-2-yl]pyrrolidine-2,5-dione], the EC50 was greater than 53 µM.

On to `CCOc1ccc(C2C(C#N)=C3Sc4ccccc4N3C(=N)C2C#N)cc1` (centres undefined) [1-amino-3-(4-ethoxyphenyl)-3H-pyrido[2,1-b][1,3]benzothiazole-2,4-dicarbonitrile], for which the midpoint of the response, the EC50, lay at 8.06 µM.

With `Oc1ccc(CN=Nc2nc(N3CCCCCC3)nc(N3CCCCCC3)n2)c(O)c1` [2,4-dihydroxybenzaldehyde (4,6-diazepan-1-yl-1,3,5-triazin-2-yl)hydrazone], the EC50 is greater than 53 µM. `COc1cc(C2C(C(=O)c3ccco3)C(=O)C(=O)N2c2cc(C)on2)cc(Br)c1O` (centres undefined) [2-(3-bromanyl-5-methoxy-4-oxidanyl-phenyl)-3-(furan-2-ylcarbonyl)-1-(5-methyl-1,2-oxazol-3-yl)-4-oxidanyl-2H-pyrrol-5-one] displayed an EC50 greater than 53 µM. The value for `C=C1C(c2ccc(Cl)cc2)=[N+](O)C(c2ccccc2)=CN1[O-]` [2-(4-chlorophenyl)-3-methyl-4-oxido-6-phenylpyrazin-1-ium 1-oxide] was greater than 53 µM; that for `N#Cc1cc2ccccc2nc1SCc1cccnc1` [2-(Pyridin-3-ylmethylsulfanyl)-quinoline-3-carbonitrile] was greater than 53 µM. Next, `CCCCCCc1cc2cc(C(=O)NCc3ccccc3)c(N)oc-2cc1=O` [2-amino-6-hexyl-7-oxo-N-(phenylmethyl)-1-benzopyran-3-carboxamide]: 4.2 µM; `COc1ccc(C2c3ccc(O)cc3OC(=N)C2C#N)cc1C` (centres undefined) [2-amino-7-hydroxy-4-(4-methoxy-3-methylphenyl)-4H-1-benzopyran-3-carbonitrile]: greater than 53 µM. The value for `CCCCCCc1cc2cc(C(=O)NC)c(N)oc-2cc1=O` [2-azanyl-6-hexyl-N-methyl-7-oxidanylidene-chromene-3-carboxamide] was 3.06 µM; that for `CCCC1=Nc2nc(C)nn2C(c2cccnc2)C1C(=O)OCC` (centres undefined) [2-methyl-5-propyl-7-(3-pyridinyl)-1,7-dihydro-[1,2,4]triazolo[1,5-a]pyrimidine-6-carboxylic acid ethyl ester] was greater than 53 µM. In the case of `Oc1nc(N=NCc2ccc(F)cc2)sc1-c1ccccc1` [2-{N'-[1-(4-Fluoro-phenyl)-meth-(E)-ylidene]-hydrazino}-5-phenyl-thiazol-4-one], the EC50 is greater than 53 µM. As to `CC1C2=C(CC(C)(C)CC2=O)N=C2CC(C)(C)CC(=O)C21` (centres undefined) [3,3,6,6,9-pentamethyl-2,4,5,7,9,10-hexahydroacridine-1,8-dione], the EC50 is greater than 53 µM. For `COc1ccccc1C1C(C(=O)c2sc(C)nc2C)C(=O)C(=O)N1CCN1CCOCC1` (centres undefined) [3-(2,4-dimethyl-1,3-thiazole-5-carbonyl)-4-hydroxy-2-(2-methoxyphenyl)-1-(2-morpholin-4-ylethyl)-2H-pyrrol-5-one], the EC50 is greater than 53 µM. Next, `C=CCOc1ccc(C2C(C(=O)c3ccco3)C(=O)C(=O)N2c2nnc(C)s2)cc1` (centres undefined) [3-(furan-2-carbonyl)-4-hydroxy-1-(5-methyl-1,3,4-thiadiazol-2-yl)-2-(4-prop-2-enoxyphenyl)-2H-pyrrol-5-one]: greater than 53 µM; `Cc1cccc(N2C(=O)C(=O)C(C(=O)c3cccs3)C2c2ccc(C(C)C)cc2)n1` (centres undefined) [3-Hydroxy-5-(4-isopropyl-phenyl)-1-(6-methyl-pyridin-2-yl)-4-(thiophene-2-carbonyl)-1,5-dihydro-pyrrol-2-one]: 11.3 µM. `O=C(Cc1nc2ccccc2n(-c2ccccc2)c1=O)c1ccc(F)cc1` [3-[2-(4-fluorophenyl)-2-oxoethylidene]-1-phenyl-3,4-dihydro-2(1H)-quinoxalinone]: the EC50 turned out to be 7.18 µM. Take `O=c1c(CN=Nc2ccccc2)c(Sc2nnnn2-c2ccccc2)nc2ccccn12` [3-[(phenylhydrazinylidene)methyl]-2-(1-phenyltetrazol-5-yl)sulfanylpyrido[1,2-a]pyrimidin-4-one]: the response was half-maximal at 10.1 µM (EC50). The EC50 values of the last two molecules are within 1.5-fold of each other. On to `O=C(c1ccccc1)c1[nH]n(-c2ccccc2)c2c(O)n(-c3ccccc3)c(=O)c1-2` [3-benzoyl-1,5-diphenyl-3a,6a-dihydropyrrolo[3,4-c]pyrazole-4,6-dione], for which the EC50 came out at 14.6 µM. `CC(=O)C1C(=O)C(=O)N(Cc2ccccc2)C1c1ccc(F)cc1` (centres undefined) [3-ethanoyl-2-(4-fluorophenyl)-4-oxidanyl-1-(phenylmethyl)-2H-pyrrol-5-one] came in with an EC50 greater than 53 µM. Next, `Cc1cc(=O)oc2c1ccc1oc(C(N=O)c3ccccc3)c(C)c12` (centres undefined) [4,9-dimethyl-8-(N-oxidanyl-C-phenyl-carbonimidoyl)furo[2,3-h]chromen-2-one]: greater than 53 µM. Consider `CSCSC1=NC(C)=C(C(C)=O)C(c2ccccc2Cl)C1C#N` (centres undefined) [4-(2-chlorophenyl)-5-ethanoyl-6-methyl-2-(methylsulfanylmethylsulfanyl)-1,4-dihydropyridine-3-carbonitrile], for which the EC50 was greater than 53 µM. The value for `CCOC(=O)C1C(CCc2ccccc2)=NC(=O)NC1c1cccc([N+](=O)[O-])c1` (centres undefined) [4-(3-nitrophenyl)-2-oxo-6-(2-phenylethyl)-3,4-dihydro-1H-pyrimidine-5-carboxylic acid ethyl ester] was greater than 53 µM. The molecule `COC(=O)c1ccc(C(=O)C(C#N)c2nc3ccccc3s2)cc1` (centres undefined) [4-[(2Z)-2-(3H-1,3-benzothiazol-2-ylidene)-2-cyano-1-oxoethyl]benzoic acid methyl ester] had an EC50 greater than 53 µM. The molecule `C=CCSc1nnc(C)c(CC=Nc2ccc(Cl)cc2)n1` [4-chloro-N-[(E)-2-(6-methyl-3-prop-2-enylsulfanyl-1,2,4-triazin-5-yl)ethenyl]aniline] returned an EC50 of 4.77 µM.

In turn, `Cc1ccc2nc(N3C(=O)C(=O)C(C(=O)c4ccc(C)o4)C3c3cccc(O)c3)sc2c1` (centres undefined) [4-hydroxy-2-(3-hydroxyphenyl)-1-(6-methyl-1,3-benzothiazol-2-yl)-3-(5-methylfuran-2-carbonyl)-2H-pyrrol-5-one] yielded an EC50 greater than 53 µM. The molecule `CC1(C)CC(=O)C(C2C3=C(CC(C)(C)CC3=O)Oc3c(Br)cc(Br)cc32)C(=O)C1` (centres undefined) [5,7-bis(bromanyl)-9-(4,4-dimethyl-2-oxidanyl-6-oxidanylidene-cyclohexen-1-yl)-3,3-dimethyl-4,9-dihydro-2H-xanthen-1-one] showed an EC50 of 10.3 µM. For the molecule `O=C1CC(c2ccccc2)C(c2ccccc2)C1=O` (centres undefined) [5-oxidanyl-3,4-diphenyl-cyclopent-2-en-1-one], the EC50 is greater than 53 µM. For `O=c1cc(Nc2cc(O)n(-c3ccccc3Cl)c2O)[nH]c(=O)[nH]1` [6-[[1-(2-chlorophenyl)-2,5-dioxopyrrolidin-3-yl]amino]-1H-pyrimidine-2,4-dione], the EC50 was greater than 53 µM.
